These results are taken from patent US20220221458A1, “NOROVIRUS-BINDING PEPTIDE” (Kao Corporation, priority 2019, published 2022).

This experiment has as its system norovirus VLPs (GII.4, GII.3, GII.17). Briefly: In vitro selection by cDNA display against VLPs with appearance frequency analysis of sequences. Conditions: count among peptide aptamer sequences obtained after in vitro selection cycles (7 cycles GII.4, 5 cycles GII.3 and GII.17).

Consider “125 (LASMWR; Designed peptide) [compound 125]”, for which the “Appearance Frequency” value is reported as 7.
With “126 (LFHPWV; Designed peptide) [compound 126]” the figure was 7.
With “181 (GKVTFD; Designed peptide) [compound 181]” the figure was 6; with “146 (RSAAGD; Designed peptide) [compound 146]”, 7.
The value for “260 (VMSPCN; Designed peptide) [compound 260]” was 6.
“12 (LNWSRS; Designed peptide) [compound 12]”: the “Appearance Frequency” value was 15.
With “124 (KVHGST; Designed peptide) [compound 124]”, the “Appearance Frequency” value stood at 7.
The value for “148 (RTGLLS; Designed peptide) [compound 148]” was 7.
The value for “218 (NGHSHA; Designed peptide) [compound 218]” was 6; that for “108 (FWHARL; Designed peptide) [compound 108]” was 7.
With “65 (SGTMQE; Designed peptide) [compound 65]” the figure was 9; with “202 (ILTHQH; Designed peptide) [compound 202]”, 6.
For “182 (GLLIPF; Designed peptide) [compound 182]”, the “Appearance Frequency” value is recorded as 6.
The value for “13 (SVQSWK; Designed peptide) [compound 13]” was 15.
With “185 (GRNAGR; Designed peptide) [compound 185]” the figure was 6; with “105 (EEMIVS; Designed peptide) [compound 105]”, 7; with “118 (HSSFSS; Designed peptide) [compound 118]”, 7.
With “99 (VYIMNH; Designed peptide) [compound 99]” the figure was 8; with “120 (IGKGMV; Designed peptide) [compound 120]”, 7; with “43 (HIHGRE; Designed peptide) [compound 43]”, 10.
As to “183 (GMDLRS; Designed peptide) [compound 183]”, the “Appearance Frequency” value is recorded as 6.
With “57 (HVRPFY; Designed peptide) [compound 57]” the figure was 9.
In the case of “47 (TTSHFK; Designed peptide) [compound 47]”, the “Appearance Frequency” value was 10.
With “109 (GCHYQF; Designed peptide) [compound 109]” the figure was 7; with “229 (QVIQRL; Designed peptide) [compound 229]”, 6.
With “192 (HLGFHT; Designed peptide) [compound 192]” the figure was 6; with “189 (HHNAPI; Designed peptide) [compound 189]”, 6.
The value for “39 (EMSRHC; Designed peptide) [compound 39]” was 10; that for “157 (VRPSNG; Designed peptide) [compound 157]” was 7.
As for “2 (CLSNLA; Designed peptide) [compound 2]”, the “Appearance Frequency” value amounted to 21.
In the case of “24 (LRSGVN; Designed peptide) [compound 24]”, the “Appearance Frequency” value stood at 12.
With “223 (NSRYFT; Designed peptide) [compound 223]” the figure was 6; with “128 (LWNMYD; Designed peptide) [compound 128]”, 7.
Consider “269 (YYPDHP; Designed peptide) [compound 269]”, for which the “Appearance Frequency” value was determined as 6.
With “55 (GTRHPS; Designed peptide) [compound 55]” the figure was 9; with “72 (DFGQSS; Designed peptide) [compound 72]”, 8.
